Experimental data from ChEMBL document CHEMBL3751852, “New mannose derivatives: The tetrazole analogue of mannose-6-phosphate as angiogenesis inhibitor” (2016).
Calls of active or inactive are those of the source. No cut-off for these calls is given here.

Test system: Chorioallantoic membrane
Test: Antiangiogenic activity in chicken chorioallantoic membrane assessed as area of neovascularization at 60 mg/ml administered on 7th embryonic day incubated for 4 days by microscopy (reference value: 100%)
Assay type: functional, Gallus gallus

Work on CO[C@H]1O[C@H](CCC(=O)O)[C@@H](O)[C@H](O)[C@@H]1O yielded an Activity of 70%.
Work on CO[C@H]1O[C@H](CCP(=O)(O)O)[C@@H](O)[C@H](O)[C@@H]1O yielded an Activity of 138%.
In the case of CO[C@H]1O[C@H](Cc2nnn[nH]2)[C@@H](O)[C@H](O)[C@@H]1O, the Activity is reported as 68%.
With CO[C@H]1O[C@H](CS(=O)(=O)c2ccccc2)[C@@H](O)[C@H](O)[C@@H]1O the Activity (Gallus gallus) was “inactive”.
Work on CO[C@H]1O[C@H](COP(=O)(O)O)[C@@H](O)[C@H](O)[C@@H]1O yielded an Activity of 43%.
